The values that follow are results of earlier work, collected in article PMC12833850, “Hybridization Approach Applied to Umbelliferon and Vanilloids toward New Inhibitors of Carbonic Anhydrases IX and XII with In Vitro Antiproliferative and Anti-inflammatory Activities” (Journal of Medicinal Chemistry, 2026).

The structures appear in SMILES notation.

The series has as its target T1, hCA IX (Homo sapiens, UniProt Q16790).
T1 construct: made in house
The following applies: data already reported; ref Maresca and Supuran, 2010.

Consider `O=c1ccc2cc(O)ccc2o1` [Compound 2, 6-hydroxycoumarin], for which the Ki was 198 nM.

For orientation: Ki means the dissociation constant of the complex between target and ligand, obtained from inhibition or displacement.
